Measurements from patent US9974767B2, “Statins in the treatment of muscular dystrophies and myopathies” (University of Washington, priority 2014, dated 2018).
Values joined by “and” are separate entries in the source; they are usually repeats but may differ in a detail not shown here. Equal values may be shown once. “Also recorded” adds a separate entry of the source.

Assays:
Assay type in all cases: in vivo, mouse
[1] = test system: WT mice; assay: Plasma CK activity in wild type mice; conditions: 8 months treatment, vs untreated WT
Protocol: The activity levels of the mice were measured by voluntary running wheel activity over 2 days. […] Therefore, since CK was measured after the running wheel activity, the dramatic reduction in CK levels in Simvastatin-treated mdx mice is not related to exercise levels. […] Therefore, statins cause a robust reduction in CK release from dystrophic muscle both in long-term treated mice starting from a young age (3 weeks to 8 months), and in old mice (12 months) over a 2 month period.
DMD is a chronic, progressively degenerative disease and consequently potential treatments need to be effective over many years. […] The calculated dose given to the mice was between 5-10 mg/kg/day. This would equate to 20-40 mg/day for a 10 yea old DMD boy weighing 30 kg, based on mouse to human equivalence calculations, which is within the recommended dose range of statins for children.
Male dystrophin-deficient (mdx) and wild type (WT) mice on the C57BL/10ScSn background were used for all experiments, which were approved by the Institutional Animal Care and Use Committee (IACUC) at the University of Washington.
Simvastatin powder (TCI America) was formulated as a treatment in two ways; in the drinking water and in the food. […]
Plasma CK was evaluated as a measure of whole body muscle damage. […]

[2] = test system: Phospholamban (PLB), SERCA2a; assay: SERCA2a, PLB S-16 and total PLB expression in cardiac muscle, immunoblotting; conditions: old mdx mice, vs mdx Con
Text: Aberrant Ca2+ handling in dystrophic cardiomyocytes leads to impaired relaxation, which is a major cause of diastolic dysfunction. […] Phospholamban (PLB) is a major inhibitor of SERCA activity and can therefore depress cardiac function.

[3] = test system: mdx mice; assay: Diaphragm specific force, ex vivo muscle strips
Text: Therefore, it is often difficult to fully evaluate the therapeutic potential of these compounds. When compared with results obtained with a clinically relevant dystrophin gene therapy approach, the magnitude of increased diaphragm force in Simvastatin-treated mice (25%) is quite impressive. Specifically, systemic delivery of a micro-dystrophin-expressing AAV vector to mdx mice provides a slightly lower (20%) average improvement in diaphragm specific force.
In mdx mice, the diaphragm is the most severely affected skeletal muscle and diaphragm dysfunction is a major cause of respiratory failure in DMD.
The diaphragm most closely recapitulates the functional deficits and fibrotic deposition that occur in DMD. […] The replacement of muscle fibers with fibrotic connective tissue is a major cause of impaired muscle force generation in DMD and therefore an important therapeutic target. […] Quantification of total collagen I levels in diaphragm muscles by hydroxyproline assay also indicated a 50% reduction in fibrosis for mdx Sim mice (FIG. 13E).
Diaphragm function, ex vivo, was measured as described previously. Briefly, diaphragm strips (2-3 mm wide) were perfused with a physiological solution bubbled with 95% O2-5% CO2. Stimulation was provided by two platinum electrodes, attached along the sides of the chamber. A lengthforce curve, established using 120 Hz isometric contractions (300 ms duration spaced 1 min apart, established the optimum length (length producing maximum tetanic force), which was later used to calculate the specific force (force divided by cross-sectional area).

[4] = test system: H2O2 (ROS); assay: H2O2 levels in diaphragm muscle homogenates, amplex red assay; conditions: old mdx mice
Text: FIG. 14A. Western blot (top) showing the levels of the autophagy proteins LC3A (upper band) and LC3B (lower band) for mdx Con and mdx Sim. GAPDH is shown as a loading control. Pooled data (bottom) for LC3A and LC3B. **P<0.01 compared to mdx Con. FIG. 14B. Hydrogen peroxide (H2O2) levels in diaphragm muscle homogenates, as quantified with a fluorescent amplex red assay. *P<0.05 compared to mdx Con. FIG. 14C. Atrogin-1 mRNA levels in quadriceps muscles were quantified by qPCR and normalized to the internal control (HPRT). *P<0.05 compared to WT Con. **P<0.01 compared to WT Con.
To further explore this idea, we also measured the levels of the ROS (H2O2) in diaphragm muscle homogenates. […] This highlights important differences between dystrophic muscle, where statins reduce oxidative stress derived from NOX2, and normal muscle susceptible to statin myopathy, where mitochondrial ROS increases oxidative stress.

CCC(C)(C)C(=O)O[C@H]1C[C@@H](C)C=C2C=C[C@H](C)[C@H](CC[C@@H]3C[C@@H](O)CC(=O)O3)[C@H]21 [Simvastatin, simvastatin]
CK levels of WT mice [1]: no difference; also recorded: no effect | CK levels of WT mice ([1]; listed as simvastatin): no effect | increase of PLB S-16 [2]: 55% | improvement of diaphragm specific force ([3]; mdx Sim vs mdx Con, 8 months treatment, stimulation 1 to 120 Hz): 25% and 20-25% | improvement of diaphragm specific force ([3]; mdx Sim vs mdx Con, 8 months treatment, stimulation 1 to 120 Hz, listed as simvastatin): 20-25% | improvement of diaphragm specific force ([3]; old mdx mice, 2 months treatment from 12 months of age, 10 to 120 Hz, vs untreated mdx): 20-30% | less H2O2 compared to mdx Con [4]: 30%
